Data on four compounds can be found in patent US20050070594A1, “Use of angiotensin II receptor antagonists” (Boehringer Ingelheim International GmbH, priority 2003, published 2005).

For data set [1] the following is noted: animal model; cited from earlier work.
Data set [2] has as its target T1, human PPARgamma-ligand binding domain (LBD) (Homo sapiens, UniProt P37231).
T1 sequence (P37231 205-505): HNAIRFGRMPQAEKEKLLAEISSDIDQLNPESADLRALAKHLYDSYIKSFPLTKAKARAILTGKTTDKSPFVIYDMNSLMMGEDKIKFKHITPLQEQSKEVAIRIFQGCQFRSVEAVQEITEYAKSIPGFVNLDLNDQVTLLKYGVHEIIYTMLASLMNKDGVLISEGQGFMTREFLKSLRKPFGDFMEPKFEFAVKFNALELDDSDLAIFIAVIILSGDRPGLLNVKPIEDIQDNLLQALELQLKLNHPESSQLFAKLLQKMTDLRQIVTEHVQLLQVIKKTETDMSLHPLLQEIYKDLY
T1 sequence (P19793 220-461 partner limits assumed): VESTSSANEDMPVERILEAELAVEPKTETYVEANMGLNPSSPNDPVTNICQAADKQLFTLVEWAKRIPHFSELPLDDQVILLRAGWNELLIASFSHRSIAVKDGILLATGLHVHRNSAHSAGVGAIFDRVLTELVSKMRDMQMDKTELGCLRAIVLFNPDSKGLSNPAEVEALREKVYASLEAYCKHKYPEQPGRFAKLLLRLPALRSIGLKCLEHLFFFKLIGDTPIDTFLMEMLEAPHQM
The data set can be described thus: SPA assay: displacement of 3H-labelled rosiglitazone from GST-PPARgamma-LBD. Particulars: NSB 217, Bmax 911. On the procedure: Protein containing the human PPARgamma-ligand binding domain (LBD) is prepared as a GST fusion protein in E.coli and purified by affinity chromatography. To do this, a DNA section which codes for the amino acids 205-505 of the human PPARgamma2 transcription factor (cf. Genbank entry U79012) is subcloned via the additionally introduced restriction cutting sites BamH I and Xho I into the expression vector pGEX-4T-1 (Amersham) and the sequence of the section is monitored. […] The bacteria are pelleted after the induction and frozen in batches in PBS, pH 7.4. After opening up in a French Press, the dissolved GST-PPARgamma-LBD-fusion protein is purified using a GSTrap column (Pharmacia). Elution is carried out by the addition of 20 mM reduced glutathione. The GST-PPARgamma-LBD-protein fractions are desalinated using a HiTrap desalting column (Pharmacia) and the protein concentration is determined using a standard assay. Protein containing the human RXRalpha ligand binding domain (LBD) is prepared as a His tag fusion protein in E.coli and purified by affinity chromatography. To do this a DNA section which codes for the amino acids 220-461 of the human RXRalpha transcription factor (cf. Genbank entry NM_002957, nt 729-1457) is subcloned via the additionally introduced restriction cutting sites BamH I and Not I into the expression vector pET28c (Novagen) and the sequence of the section is monitored. […] The bacteria are pelleted after the expression and frozen in batches in PBS, pH 7.4. After opening up in a French Press, the dissolved His-RXRalpha-LBD-fusion protein is purified using a HiTrap chelating column (Pharmacia). Elution is carried out using a 500 mM imidazole step. The His-RXRalpha-LBD protein fractions are desalinated using a HiTrap desalting column (Pharmacia) and the protein concentration is determined using a standard assay. A description of the SPA assay format can be found in Mukheriee R et al., J Steroid Biochem Mol Biol (2002) 81:217-225.

Data set [3] has as its target T2, ligand binding domain of the human PPARgamma2 transcription factor (Gal4 DNA binding domain fusion) (Homo sapiens, UniProt P37231).
T2 construct: codes for amino acids 205-505 of the human PPARgamma2 transcription factor; expressed in transfected cells
T2 sequence (P37231 205-505): T1 sequence (P37231 205-505)
The data set can be described thus: Luciferase activity in stably transformed PPARgamma reporter cell line (CHO-K1 clone 11). The class given is cell-based. The note with it: 24 hours. On the procedure:
The resulting plasmid pFA-CMV/hPPARgamma2-LBD codes N-terminally of the PPARgamma-LBD in the same reading frame for a Gal4 DNA binding domain. In addition the plasmid codes for a neomycin resistance.
The cell line CHO-K1 (ATCC CCL-61) is cotransfected with the plasmids pFA-CMV/hPPARgamma2-LBD and pFR-Luc (Stratagene). pFR-Luc codes for the luciferase gene under the control of a five-times repeated yeast Gal4 binding site. The transfection is carried out with lipofectamine2000 in accordance with the manufacturer's instructions.
After six days' cultivation the cells are passaged and kept in culture for another 10 days. The resulting neomycin-resistant colonies are picked out under the microscope and transferred into 96 well-dishes and cultured.
The test substances are brought to 100 times the desired concentration with a suitable solvent, e.g. DMSO, and diluted 1:100 with the medium placed in the cell culture plate. The solvent used, e.g. DMSO, is used as the background control in the same concentration.
Luminescence is measured after a five minute wait using a Packard TopCount NXT. The luciferase activity is obtained by integrating the relative luciferase units (RLU) of the first ten seconds after the start of measurement.

The target of data set [4] is T3, human PPARgamma-ligand binding domain (LBD) (Homo sapiens, UniProt P37231).
T3 construct: codes for the amino acids 205-505 of the human PPARgamma2 transcription factor; made in house; host or cells: E. coli BL21(DE3), vector pGEX-4T-1
T3 sequence (P37231 205-505): T1 sequence (P37231 205-505)
The data set can be described thus: AlphaScreen: recruiting of biotinylated LXXLL peptide of cofactor CBP to GST-PPARgamma-LBD. The data set is classed as biochemical. Particulars: concentrations of up to 50 μM. On the procedure: Protein containing the human PPARgamma-ligand binding domain (LBD) is prepared as a GST fusion protein in E.coli and purified by affinity chromatography. […] The fusion protein is expressed in the E.coli strain BL21(DE3) recommended for pGEX vectors after induction with 0.2 mM IPTG for 4 hours at 25° C. The bacteria are pelleted after the induction and frozen in batches in PBS, pH 7.4. After opening up in a French Press, the dissolved GST-PPARgamma-LBD-fusion protein is purified using a GSTrap column (Pharmacia). Elution is carried out by the addition of 20 mM reduced glutathione.
The GST-PPARgamma-LBD-protein fractions are desalinated using a HiTrap desalting column (Pharmacia) and the protein concentration is determined using a standard assay.
The assay buffer consists of 25 mM Hepes pH7.4, 100 mM NaCl,1 mM DTT, 0.1% Tween-20, 0.1% BSA. […] The final DMSO concentration in the assay is 1% (v/v). A 1% DMSO solution is used as the background control (NSB). The measurement is done using a Packard fusion measuring device.

Data set [5] relates to Adipose Protein 2 (aP2) expression. The data set can be described thus: Stimulation of aP2 expression in 3T3-L1 cells (real time PCR). The class given is cell-based, mouse. Particulars: 10 μmol/L. An excerpt:
3T3-L1 mouse preadipocytes are cultivated in DMEM (Dulbecco's modified eagle medium) with 10% foetal calf serum (FBS). PC12W cells are cultivated in DMEM with 5% FBS and 10% equine serum. In both cases the media contain 1% penicillin/streptomycin.
The differentiation of adipocytes is induced 2-3 days after cell confluence by adding a differentiating solution. This contains • 1 μmol/L of dexamethasone, • 0.5 mmol/L of 3-isobutyl-1-methylxanthine, • 1.67 μmol/L of insulin, and • 10% FBS.
Then the cells are stimulated for another 48 hours before finally being analysed (day 4).
RNA isolation, reverse transcription and quantification of gene expression are carried out using an ABI 7000 sequence detection system-for real time PCR (described in Janke et al, Diabetes 51:1699-707, 2002). The endogenous control used for the real time PCR consists of the household genes 18S rRNA and hypoxanthine guanine phosphoribosyl transferase (hprt).
In general terms: Quantitative PCR measures a nucleic acid by following its amplification.

Data set [6] in a line: Dissolution of active substances from tablets. The data set is classed as physicochemical. Particulars: 900 ml 0.1 M phosphate buffer pH 7.5, 75 rpm.

Structures can show the parent of a compound that is named as a salt.

Turning to `CCCCC1=NC2(CCCC2)C(=O)N1Cc1ccc(-c2ccccc2-c2nnn[nH]2)cc1` [irbesartan], in data set [1], the insulin sensitivity entry is “Improvement to the insulin sensitivity”. Also, the “SPA signal, bound 3H-rosiglitazone (MW)” value stood at 510 in data set [2] (1.00E−04 M test substance); 723 in data set [2] (1.00E−05 M test substance); 815 in data set [2] (1.00E−06 M test substance); 913 in data set [2] (1.00E−07 M test substance); 648 in data set [2] (3.00E−05 M test substance); 779 in data set [2] (3.00E−06 M test substance). For the same compound, the “SPA signal, bound 3H-rosiglitazone (MW)” value in data set [2] (3.00E−07 M test substance) turned out to be 810. In addition, the “luciferase activity (MW)” value in data set [3] (1.00E−04 M) is on record as 29600 RLU; in data set [3] (1.00E−05 M), 3292 RLU; in data set [3] (1.00E−06 M), 657 RLU; in data set [3] (3.00E−05 M), 22133 RLU; in data set [3] (3.00E−06 M) it was 1028 RLU; in data set [3] (3.00E−07 M), 491 RLU. For the same compound, the “direct activation of the PPARgamma-LBD / recruiting of the LXXLL peptide” value in data set [4] is given as “does not result in any direct activation”.

Regarding `CCCCc1nc(Cl)c(CO)n1Cc1ccc(-c2ccccc2-c2nn[nH]n2)cc1` [losartan], the “SPA signal, bound 3H-rosiglitazone (MW)” value in data set [2] (1.00E−04 M test substance) was determined as 611; in data set [2] (1.00E−05 M test substance), 787; in data set [2] (1.00E−06 M test substance) it was 901; in data set [2] (1.00E−07 M test substance), 915; in data set [2] (3.00E−05 M test substance), 784; in data set [2] (3.00E−06 M test substance), 814. Further, the “SPA signal, bound 3H-rosiglitazone (MW)” value in data set [2] (3.00E−07 M test substance) is recorded as 835. Also, the “luciferase activity (MW)” value was determined as 11322 RLU in data set [3] (1.00E−04 M); 709 RLU in data set [3] (1.00E−05 M); 589 RLU in data set [3] (1.00E−06 M); 3271 RLU in data set [3] (3.00E−05 M); 672 RLU in data set [3] (3.00E−06 M); 874 RLU in data set [3] (3.00E−07 M). In data set [4], the “direct activation of the PPARgamma-LBD / recruiting of the LXXLL peptide” value was “does not result in any direct activation”.

As for `CCc1ccc(CCOc2ccc(CC3SC(=O)NC3=O)cc2)nc1` (stereo not drawn) [pioglitazone], the “stimulation of aP2 expression, factor” value in data set [5] worked out at 4.5±1.

Turning to `CCCc1nc2c(C)cc(-c3nc4ccccc4n3C)cc2n1Cc1ccc(-c2ccccc2C(=O)O)cc1` [telmisartan sodium salt], the entries for the “dissolved after 30 minutes” value in data set [6] (first batch), in data set [6] (second batch) and in data set [6] (third batch) were 92±1.5%, 96±1.8% and 100±1.0%, respectively.
